This is an account of results in US11292773B2, “Small molecule inhibitors of BCL-2-associated death promoter (BAD) phosphorylation” (NATIONAL UNIVERSITY OF SINGAPORE, priority 2017, dated 2022).

Entries after “also recorded” stand apart in the source; their conditions may differ.

Common to all, as to assay type: cell-based, human
The subject of test [1] is AKT. The test is described as follows: Western blot of pAKT (Ser473), AKT, pBAD (Ser99) and BAD in carcinoma cell lines. To be noted: MCF7, Caov-3, Ishikawa, AsPC-1. Also noted: dose or concentration left out as unconfirmed. The protocol: (A) WB analysis was used to assess the levels of phosphorylated human BAD (at Ser75 and Ser99) and BAD protein in the range of carcinoma cell lines, including mammary, ovarian, pancreatic, endometrial, hepatocellular, colon and prostate cancer after treatment with NPB (5 μM). Total BAD was used as an input control for cell lysate. (B) WB analysis was used to assess the levels of pBAD (Ser99) and pAKT (Ser473), AKT and BAD in MCF7, Caov-3, Ishikawa, and AsPC-1 cells. […] Depletion of AKT expression was achieved using transient-transfection of short hairpin (sh)-RNA (1&2) directed to AKT transcript as described in methodology. β-ACTIN was used as an input control for cell lysate. For WB analysis, soluble whole cell extracts were run on an SDS-PAGE and immunoblotted as described in materials methodology. The sizes of detected protein bands in kDa are shown on the left side. Note: #; non-transformed immortalized-cell line.
The upstream AKT Ser/Thr kinase regulates the phosphorylation of hBAD at Ser99 [13]. We therefore determined whether NPB inhibits the phosphorylation of hBAD (Ser99) via modulation of the activity of AKT (as indicated by phosphorylation of Ser473) using western blot analysis. We observed no change in the levels of pAKT or levels of total AKT protein after exposure of four different carcinoma cells lines (MCF7, Caov-3, Ishikawa, and AsPC-1) to 10 μM NPB. […]
For orientation: A western blot detects proteins with antibodies after separation by electrophoresis.

Test [2] deals with carcinoma cell lines (mammary, endometrial, ovarian, liver, colon, prostate, pancreatic). Kind of test: ApoTox-Glo Triplex assay (viability, caspase 3/7, cytotoxicity) in carcinoma cell lines. To be noted: all tested cancer cell lines. The source says: NPB was subsequently evaluated against panel of normal immortalized mammary epithelial cells (MCF10A and MCF12A), normal hepatocytes (LO2), mammary carcinoma (BT549, MDA-MB-231, MCF7, T47D, BT474), endometrial cancer (Ishikawa, Ecc1, RL95-2, AN3), ovarian cancer (SK-OV-3, OVCAR-2, Caov-3, HEY C2, Ovca433), liver cancer (Hep3B, H2P, H2M), colon cancer (HCT116, DLD-1, Caco-2), prostate cancer (PC3, LNCaP, DU145) and pancreatic cancer (AsPC-1, BxPC-3) cells. […] Using a Laplacian-modified Naïve Bayes classifier, NPB is subjected to in silico analysis which anticipates the human target of NPB as BAD protein.
Effect of NPB (5 μM) on carcinoma cell viability including, mammary, endometrial, ovarian, liver, colon, prostate, and pancreatic carcinoma cell lines. (A) Cell viability (B) caspase 3/7 activities and (C) cytotoxicity were evaluated using ApoTox-GIo™ Triplex Assay Kit as described in methodology. Statistical significance was assessed by an unpaired two-tailed Student's t-test using GraphPad Prism5. The column represents mean of triplicate determinations; bars, ±SD. **P<0.001, *P<0.05. Note: RFU, relative fluorescence unit; RLU, relative luminescence unit, #; non-transformed, immortalized epithelial cells; MB-231, MDA-MB-231. […]

In test [3] the test system is MCF7 cells. The test is described as follows: Annexin V and propidium iodide apoptosis assay (FACS). To be noted: about 24 hours, dose dependent manner. As to the method: Phosphatidylserine exposure and cell death are assessed by FACS analysis using Annexin-V-FLUOS Staining Kit (Life Technologies, Singapore) and PI-stained cells. Briefly, 1×10^5 MCF cells/well (190 μL/well) are seeded in 6-well plates and incubated with different concentrations of NPB for about 24 hours and DMSO treated samples are used as control. Cells are then washed with Annexin V binding buffer (10 mM HEPES/NaOH, pH7.4, 140 mM NaCl, 2.5 mM CaCl2), stained with Annexin V FITC for about 30 minutes at room temperature in the dark, then washed again and re-suspended in Annexin V binding buffer containing PI. Samples are analyzed immediately on a BD FACSAria Cell Sorter (BD Biosciences, San Jose, Calif.).
Loss of membrane integrity and translocation of phosphatidylserine to outer leaflet of plasma membrane are the early events of apoptosis which can be detected using FITC conjugated annexin-V and propidium iodide staining. It is observed that NPB induces apoptosis in MCF7 cells using FITC-annexin V and propidium iodide. On treatment with NPB, increase in both early (PI negative, FITC-Annexin V positive) and late apoptotic cells (PI positive, FITC-Annexin V positive) is observed in a dose dependent manner as shown in FIG. 13A.

For `O=C(NC1CCCC1)c1cccc(C(c2ccccc2O)N2CCN(c3cccc(Cl)c3Cl)CC2)c1` (stereo not shown) [NPB, N-cyclopentyl-3-((4-(2,3-dichlorophenyl)piperazin-1-yl)(2-hydroxyphenyl)methyl) benzamide], in test [1], the “BAD phosphorylation at the Ser99 site” value was “inhibition” and the “levels of pAKT or total AKT protein” value is given as “no change”. Further, the “apoptosis in cancer cell lines” value in test [2] is reported as “significantly enhanced; also recorded: induce apoptotic cell death”. The “early and late apoptotic cells (FITC-Annexin V / PI)” value in test [3] is listed as “increase”.
